{
  "source": "patent US20090110708A1",
  "about": "“ANIMATE TISSUE ANTISEPSIS” (priority 2007, published 2009)",
  "test_system": "Staphylococcus aureus",
  "experiment": "Kill of Staphylococcus aureus inoculated onto inanimate porcine intestine by forced evaporation of the applied solution",
  "format": "cell-based",
  "data": [
    {"compound": "ethyl alcohol [10% alcohol (EtOH), reference compound]", "values": [
      {"measurement": "log reduction", "setting": "no peroxide, 10% alcohol (EtOH)", "value": "no measurable log reduction"}
    ]},
    {"compound": "OO", "note": "[H2O2, hydrogen peroxide]", "values": [
      {"measurement": "death of the organisms (kill by enhanced evaporation)", "setting": "initial H2O2 concentrations 4%-10% (vol.), 16 mg/cm^2 on tissue, blown air 50° C., 5.0 m/sec", "value": "significantly killed"},
      {"measurement": "log reduction", "setting": "no alcohol, 3 minute dry time", "value": 2.21},
      {"measurement": "log reduction", "setting": "no alcohol, 3.5 minute dry time", "value": 2.68},
      {"measurement": "log reduction", "setting": "no alcohol, 4 minute dry time", "value": 1.79}
    ]}
  ]
}
